Values quoted from earlier work in US20070065414A1, “Enhanced delivery of cells” (Boston Scientific Scimed, Inc., priority 2005, published 2007).

Details: general statement, no experiment described

blood pool half-life: only a few seconds
SMILES: Nc1ncnc2c1ncn2[C@@H]1O[C@H](CO)[C@@H](O)[C@H]1O [Adenosine, adenosine]
